Consider two compounds from ChEMBL document CHEMBL5346903, “Discovery of novel and bioavailable histone deacetylases and cyclin-dependent kinases dual inhibitor to impair the stemness of leukemia cells” (Eur J Med Chem, 2023).

The subject of data set [1] is HL-60. Kind of data set: Induction of apoptosis in human HL-60 cells assessed as viable cells at 2.5 uM incubated for 48 hrs by annexin V-FITC/PI satining based flow cytometry (reference value: 94.7 %). Format: functional. The note with it: read-out: Activity.
Data set [2] has as its system HL-60. Kind of data set: Induction of apoptosis in human HL-60 cells assessed as early apoptotic cells at 2.5 uM incubated for 48 hrs by annexin V-FITC/PI satining based flow cytometry (reference value: 2.4 %). Format: functional. Background: Flow cytometry measures light scatter and fluorescence of single cells or particles in a stream.
For data set [3], the system named is HL-60. Kind of data set: Induction of apoptosis in human HL-60 cells assessed as late apoptotic cells at 1.2 uM incubated for 48 hrs by annexin V-FITC/PI satining based flow cytometry (reference value: 2.83 %). Format: functional.
Data set [4] has as its system HL-60. Kind of data set: Induction of apoptosis in human HL-60 cells assessed as late apoptotic cells at 5 uM incubated for 48 hrs by annexin V-FITC/PI satining based flow cytometry (reference value: 2.83 %). Format: functional.
For data set [5], the system named is U-937. The data set can be described thus: Induction of apoptosis in human U-937 cells assessed as early apoptotic cells at 0.6 uM incubated for 48 hrs by annexin V-FITC/PI satining based flow cytometry (reference value: 1.93 %). Format: functional.
The test system of data set [6] is U-937. The data set can be described thus: Induction of apoptosis in human U-937 cells assessed as late apoptotic cells at 1.2 uM incubated for 48 hrs by annexin V-FITC/PI satining based flow cytometry (reference value: 4.23 %). Format: functional.
Data set [7] concerns U-937. The data set can be described thus: Induction of apoptosis in human U-937 cells assessed as necrotic cells at 2.5 uM incubated for 48 hrs by annexin V-FITC/PI satining based flow cytometry (reference value: 0.102 %). Format: functional.
Data set [8] has as its system U-937. Kind of data set: Induction of differentiation in human U-937 cells assessed as increase in CD11b positive cells at 0.6 uM incubated for 48 hrs by FITC staining based flow cytometry (reference value: […] %). Format: functional.
The target of data set [9] is Cyclin-dependent kinase 9 (Homo sapiens, UniProt P50750). The data set can be described thus: Inhibition of CDK9 (unknown origin) preincubated for 20 mins followed by [gamma-33P]ATP addition measured after 120 mins in presence of ATP by Hot-SpotSM kinase assay.
In data set [10] the target is Histone deacetylase (Homo sapiens) (UniProt Q13547+O15379+Q9UBN7+Q92769+Q9UQL6+Q8WUI4+Q9BY41+Q96DB2+P56524+Q9UKV0+Q969S8). The data set can be described thus: Inhibition of HDAC in human nuclear extract using Ac-Arg-Gly-Lys(Ac)-AMC as substrate at 1 uM incubated overnight by fluorescence based assay relative to control. Format: subcellular. The note with it: HeLa, Nucleus.

In another data set the target is Histone deacetylase 1 (Homo sapiens, UniProt Q13547). The data set can be described thus: Inhibition of recombinant human HDAC1 using HDAC substrate incubated for 30 mins by fluorescence based assay.
Data set [11] has as its target CDK1/Cyclin A (Homo sapiens) (UniProt P06493+P20248). Kind of data set: Inhibition of CDK1/cyclinA2 (unknown origin) at 100 nM preincubated for 20 mins followed by [gamma-33P]ATP addition measured after 120 mins in presence of ATP by Hot-SpotSM kinase assay relative to control. Format: protein-complex assay. The note with it: time 140.0 min.
Data set [12] addresses Cyclin-dependent kinase 1/cyclin B1 (Homo sapiens) (UniProt P06493+P14635). Kind of data set: Inhibition of CDK1/cyclinB1 (unknown origin) at 100 nM preincubated for 20 mins followed by [gamma-33P]ATP addition measured after 120 mins in presence of ATP by Hot-SpotSM kinase assay relative to control. Format: protein-complex assay. Particulars: time 140.0 min.
The target of data set [13] is CDK1/Cyclin E (Homo sapiens) (UniProt P06493+P24864). Kind of data set: Inhibition of CDK1/cyclinE1 (unknown origin) at 100 nM preincubated for 20 mins followed by [gamma-33P]ATP addition measured after 120 mins in presence of ATP by Hot-SpotSM kinase assay relative to control. Format: protein-complex assay. Particulars: time 140.0 min.
Data set [14] has as its target CDK3/Cyclin E (Homo sapiens) (UniProt P24864+Q00526). Kind of data set: Inhibition of CDK3/cyclinE1 (unknown origin) at 100 nM preincubated for 20 mins followed by [gamma-33P]ATP addition measured after 120 mins in presence of ATP by Hot-SpotSM kinase assay relative to control. Format: protein-complex assay. Particulars: time 140.0 min.
The target of data set [15] is CDK4/Cyclin D3 (Homo sapiens) (UniProt P11802+P30281). The data set can be described thus: Inhibition of CDK4/cyclinD3 (unknown origin) at 100 nM preincubated for 20 mins followed by [gamma-33P]ATP addition measured after 120 mins in presence of ATP by Hot-SpotSM kinase assay relative to control. Particulars: time 140.0 min. Format: protein-complex assay.
Data set [16] addresses CDK6/cyclin D3 (Homo sapiens) (UniProt P30281+Q00534). Kind of data set: Inhibition of CDK6/cyclinD3 (unknown origin) at 100 nM preincubated for 20 mins followed by [gamma-33P]ATP addition measured after 120 mins in presence of ATP by Hot-SpotSM kinase assay relative to control. The note with it: time 140.0 min. Format: protein-complex assay.
Data set [17] has as its system HL-60. Kind of data set: Induction of apoptosis in human HL-60 cells assessed as early apoptotic cells at 0.5 uM incubated for 48 hrs by annexin V-FITC/PI satining based flow cytometry (reference value: 1.24 %). Format: functional.
The test system of data set [18] is HL-60. Kind of data set: Induction of apoptosis in human HL-60 cells assessed as early apoptotic cells at 1 uM incubated for 48 hrs by annexin V-FITC/PI satining based flow cytometry (reference value: 1.24 %). Format: functional.
In data set [19] the test system is U-937. Kind of data set: Induction of apoptosis in human U-937 cells assessed as viable cells at 0.2 uM incubated for 48 hrs by annexin V-FITC/PI satining based flow cytometry (reference value: 90.0 %). Format: functional. Particulars: read-out: Activity.
Data set [20] concerns U-937. The data set can be described thus: Induction of apoptosis in human U-937 cells assessed as early apoptotic cells at 0.2 uM incubated for 48 hrs by annexin V-FITC/PI satining based flow cytometry (reference value: 0.945 %). Format: functional.
The subject of data set [21] is U-937. Kind of data set: Induction of apoptosis in human U-937 cells assessed as late apoptotic cells at 1 uM incubated for 48 hrs by annexin V-FITC/PI satining based flow cytometry (reference value: 7.10 %). Format: functional.
Data set [22] has as its system U-937. The data set can be described thus: Induction of apoptosis in human U-937 cells assessed as late apoptotic cells at 2 uM incubated for 48 hrs by annexin V-FITC/PI satining based flow cytometry (reference value: 7.10 %). Format: functional.
The subject of data set [23] is U-937. The data set can be described thus: Induction of apoptosis in human U-937 cells assessed as necrotic cells at 1 uM incubated for 48 hrs by annexin V-FITC/PI satining based flow cytometry (reference value: 1.96 %). Format: functional.
Data set [24] concerns U-937. Kind of data set: Induction of apoptosis in human U-937 cells assessed as necrotic cells at 2 uM incubated for 48 hrs by annexin V-FITC/PI satining based flow cytometry (reference value: 1.96 %). Format: functional.
Data set [25] in a line: Cytotoxicity against human Kasumi 1 cells assessed as CD34positive CD38negative leukemic stem cell-like cells sub-population at 2 uM incubated for 24 hrs by APC/FITC satining based flow cytometry (reference value: 96.8 %). Format: functional.
Data set [26] in a line: Clearance in Sprague-Dawley rat at 5 mg/kg, iv measured upto 6 hrs by LC/MS-MS analysis. Format: ADME, organism-based. Particulars: in vivo.
A short description of data set [27]: MRT in Sprague-Dawley rat at 5 mg/kg, iv measured upto 6 hrs by LC/MS-MS analysis. Format: ADME, organism-based. Particulars: in vivo.
Data set [28] is described as follows: Tmax in Sprague-Dawley rat at 25 mg/kg, po measured upto 8 hrs by LC/MS-MS analysis. Format: ADME, organism-based. The note with it: in vivo.
Data set [29] can be described thus: AUC in Sprague-Dawley rat at 25 mg/kg, po measured upto 8 hrs by LC/MS-MS analysis. Format: ADME, organism-based. The arrangement: time < 8 hrs, dose 25 mg/kg, route po. Particulars: in vivo.

Cyclin-dependent kinase 9, sequence (P50750 whole entry): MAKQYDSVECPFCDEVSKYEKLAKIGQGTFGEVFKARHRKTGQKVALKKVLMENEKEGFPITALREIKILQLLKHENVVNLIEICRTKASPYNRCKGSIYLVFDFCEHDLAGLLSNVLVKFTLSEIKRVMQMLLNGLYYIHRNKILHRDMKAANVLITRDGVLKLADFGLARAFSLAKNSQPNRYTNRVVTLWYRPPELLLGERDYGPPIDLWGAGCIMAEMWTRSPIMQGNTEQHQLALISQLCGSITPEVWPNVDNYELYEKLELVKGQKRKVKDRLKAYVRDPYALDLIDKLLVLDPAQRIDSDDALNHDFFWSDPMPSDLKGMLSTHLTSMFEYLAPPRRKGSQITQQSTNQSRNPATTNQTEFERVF
CDK3/Cyclin E (Homo sapiens), sequence (P24864 whole entry, looked up): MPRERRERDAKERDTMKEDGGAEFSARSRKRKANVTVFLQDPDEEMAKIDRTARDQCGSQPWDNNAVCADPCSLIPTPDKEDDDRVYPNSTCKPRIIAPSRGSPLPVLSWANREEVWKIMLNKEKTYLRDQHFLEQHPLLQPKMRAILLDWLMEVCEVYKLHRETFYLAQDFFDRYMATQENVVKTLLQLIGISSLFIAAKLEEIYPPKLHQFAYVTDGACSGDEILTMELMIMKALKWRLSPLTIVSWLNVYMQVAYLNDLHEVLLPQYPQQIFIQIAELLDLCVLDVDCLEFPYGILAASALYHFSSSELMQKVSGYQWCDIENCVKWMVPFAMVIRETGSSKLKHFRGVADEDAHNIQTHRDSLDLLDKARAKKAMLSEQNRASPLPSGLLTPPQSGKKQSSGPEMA
CDK3/Cyclin E (Homo sapiens), sequence (Q00526 whole entry, looked up): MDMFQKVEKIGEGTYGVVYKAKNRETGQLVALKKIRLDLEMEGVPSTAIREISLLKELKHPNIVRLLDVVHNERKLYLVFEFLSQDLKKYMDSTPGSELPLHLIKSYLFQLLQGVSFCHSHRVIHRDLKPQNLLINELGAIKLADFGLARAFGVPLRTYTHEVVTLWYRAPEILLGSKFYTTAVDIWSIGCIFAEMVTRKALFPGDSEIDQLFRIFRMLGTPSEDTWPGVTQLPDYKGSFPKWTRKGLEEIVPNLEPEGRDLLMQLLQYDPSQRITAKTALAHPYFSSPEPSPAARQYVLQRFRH
Histone deacetylase 1, sequence (Q13547 whole entry): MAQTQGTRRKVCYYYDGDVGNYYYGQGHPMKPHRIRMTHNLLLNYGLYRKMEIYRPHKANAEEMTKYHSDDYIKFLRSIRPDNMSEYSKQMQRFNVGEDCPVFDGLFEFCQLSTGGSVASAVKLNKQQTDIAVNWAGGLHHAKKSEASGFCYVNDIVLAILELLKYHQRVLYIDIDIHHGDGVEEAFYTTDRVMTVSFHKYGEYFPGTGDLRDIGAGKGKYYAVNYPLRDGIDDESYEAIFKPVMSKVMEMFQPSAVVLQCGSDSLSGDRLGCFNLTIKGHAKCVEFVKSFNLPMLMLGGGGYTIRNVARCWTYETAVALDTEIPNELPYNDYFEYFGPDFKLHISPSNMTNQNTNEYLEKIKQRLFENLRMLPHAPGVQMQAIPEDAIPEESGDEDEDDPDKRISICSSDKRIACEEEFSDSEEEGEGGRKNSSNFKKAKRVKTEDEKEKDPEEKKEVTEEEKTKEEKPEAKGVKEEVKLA
CDK1/Cyclin E (Homo sapiens), sequence (P06493 whole entry, looked up): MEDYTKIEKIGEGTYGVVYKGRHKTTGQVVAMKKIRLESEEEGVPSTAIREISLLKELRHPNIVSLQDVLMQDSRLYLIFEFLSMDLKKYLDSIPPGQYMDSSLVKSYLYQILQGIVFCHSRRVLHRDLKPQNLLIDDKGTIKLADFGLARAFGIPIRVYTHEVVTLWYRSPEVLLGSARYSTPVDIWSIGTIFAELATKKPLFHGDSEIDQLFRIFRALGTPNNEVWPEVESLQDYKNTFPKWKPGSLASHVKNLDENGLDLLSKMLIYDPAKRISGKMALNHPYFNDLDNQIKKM
CDK1/Cyclin E (Homo sapiens), sequence (P24864 whole entry, looked up): as the sequence (P24864 whole entry, looked up) above
CDK1/Cyclin A (Homo sapiens), sequence (P06493 whole entry, looked up): as the sequence (P06493 whole entry, looked up) above
CDK1/Cyclin A (Homo sapiens), sequence (P20248 whole entry, looked up): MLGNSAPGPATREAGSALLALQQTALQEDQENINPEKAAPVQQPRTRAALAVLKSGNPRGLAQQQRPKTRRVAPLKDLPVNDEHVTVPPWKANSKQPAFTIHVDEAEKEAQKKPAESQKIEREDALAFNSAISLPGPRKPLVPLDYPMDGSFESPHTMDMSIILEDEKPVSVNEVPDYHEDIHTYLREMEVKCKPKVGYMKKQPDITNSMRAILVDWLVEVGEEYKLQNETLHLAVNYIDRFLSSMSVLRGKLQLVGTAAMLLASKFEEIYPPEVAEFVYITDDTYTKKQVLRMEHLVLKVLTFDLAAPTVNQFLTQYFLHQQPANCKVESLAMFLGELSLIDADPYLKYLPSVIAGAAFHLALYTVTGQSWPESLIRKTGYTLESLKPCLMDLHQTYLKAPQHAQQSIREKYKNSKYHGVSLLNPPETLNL
Cyclin-dependent kinase 1/cyclin B1 (Homo sapiens), sequence (P06493 whole entry, looked up): as the sequence (P06493 whole entry, looked up) above
Cyclin-dependent kinase 1/cyclin B1 (Homo sapiens), sequence (P14635 whole entry, looked up): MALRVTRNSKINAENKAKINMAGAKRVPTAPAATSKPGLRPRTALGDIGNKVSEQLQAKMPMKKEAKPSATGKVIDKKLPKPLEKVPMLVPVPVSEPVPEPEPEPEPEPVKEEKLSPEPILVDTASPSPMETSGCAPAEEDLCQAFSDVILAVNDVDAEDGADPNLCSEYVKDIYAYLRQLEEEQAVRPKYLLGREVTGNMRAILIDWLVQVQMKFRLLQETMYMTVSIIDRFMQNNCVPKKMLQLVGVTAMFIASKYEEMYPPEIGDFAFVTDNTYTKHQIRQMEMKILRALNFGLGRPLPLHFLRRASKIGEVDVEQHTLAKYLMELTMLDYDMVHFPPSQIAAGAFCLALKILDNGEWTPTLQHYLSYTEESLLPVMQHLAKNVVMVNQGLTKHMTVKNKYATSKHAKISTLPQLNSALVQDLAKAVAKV

Take `Nc1cc(F)ccc1NC(=O)c1ccc(CNC(=O)/C=C/c2cccnc2)cc1` [TUCIDINOSTAT]: in the data set with HL-60 [1], the viability at 2.5 µM is 56.1%. The Activity in the data set with HL-60 [2] is given as 5.95%; with HL-60 [3] it was 11.5%; in the data set with HL-60 [4], 73.4%; with U-937 [5] it was 1.65%; with U-937 [6], 6.77%; with U-937 [7] it was 0.084%. The Activity with U-937 [8] came out at 4.06%.
In the case of `Nc1ccccc1NC(=O)c1ccc(NC(=O)c2n[nH]cc2NC(=O)c2c(Cl)cccc2Cl)cc1`, the IC50 was under 100 nM in data set [9] and 35.7 nM on Histone deacetylase 1. Further, the inhibition in [10] was determined as 100%; in data set [11], 31%; in data set [12] it was 43.8%; in data set [13] it was 27.6%; in data set [14] it was 36.3%; in data set [15], 72.8%. Moreover, in data set [16], the inhibition was found to be 21.4%. The Activity in the data set with HL-60 [17] is given as 2.42%; in the data set on HL-60 [18] it was 17%; with U-937 [20] it was 1.56%; with U-937 [21], 34.1%; in the data set with U-937 [22] it was 88.7%; in the data set on U-937 [23], 15.1%. The Activity with U-937 [24] came to 3.3%; in data set [25], 28.1%. Besides, the viability at 0.2 µM in the data set with U-937 [19] was 87.4%. Moreover, in data set [26], the clearance is 88.5 mL/min/kg. The compound further returned an MRT in data set [27] of 23.4 min. Moreover, the Tmax in data set [28] is 45 min. Also, the AUC in data set [29] was found to be 2368 ng·h/mL.

As usually defined, the IC50 is the midpoint of a concentration-inhibition curve. By inhibition is commonly meant the relative decrease from the control value, in per cent. A word on the clearance: it is a measure of how efficiently the substance is removed, as volume per time. Lower therefore signals a low capacity for elimination. As usually defined, the MRT is the average time that molecules of a dose stay in the body. For orientation: Tmax means the time from dosing to the highest level. By AUC is commonly meant concentration integrated over time. Higher therefore signals more exposure.
